In PubChem BioAssay AID330 (DTP/NCI, 2004):
“And” between values parts separate entries of the source, which are not always exact repeats. Equal entries are not always repeated. Toxic doses and inconclusive results are not listed.

Tested on: P388 leukemia ip, CD2F1 mice, survival T/C
Assay: NCI In Vivo Anticancer Drug Screen. Data for tumor model P388 Leukemia (intraperitoneal) in CD2F1 (CDF1) mice
Settings: endpoint: median survival time, higher = longer survival
How it was run: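 Mice carrying the transplanted tumor received test compound or vehicle. Survival was recorded in each group, and the value is the treated-group measurement divided by that of the vehicle-treated control group.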

[1] = dose: 60.0 mg/kg/injection, schedule: Q01DX005 (ip), vehicle: Klucel (hydroxypropylcellulose) (HPC)
[2] = dose: 120.0 mg/kg/injection, schedule: Q01DX005 (ip), vehicle: Klucel (hydroxypropylcellulose) (HPC)
[3] = dose: 240.0 mg/kg/injection, schedule: Q01DX005 (ip), vehicle: Klucel (hydroxypropylcellulose) (HPC)
[4] = dose: 60.0 mg/kg/injection, schedule: Q01DX005 (ip), vehicle: saline with Tween-80
[5] = dose: 120.0 mg/kg/injection, schedule: Q01DX005 (ip), vehicle: saline with Tween-80
[6] = dose: 240.0 mg/kg/injection, schedule: Q01DX005 (ip), vehicle: saline with Tween-80
[7] = dose: 12.5 mg/kg/injection, schedule: Q01DX009 (ip), vehicle: saline with Tween-80
[8] = dose: 25.0 mg/kg/injection, schedule: Q01DX009 (ip), vehicle: saline with Tween-80
[9] = dose: 50.0 mg/kg/injection, schedule: Q01DX009 (ip), vehicle: saline
[10] = dose: 100.0 mg/kg/injection, schedule: Q01DX009 (ip), vehicle: saline with Tween-80
[11] = dose: 100.0 mg/kg/injection, schedule: Q01DX009 (ip), vehicle: saline
[12] = dose: 200.0 mg/kg/injection, schedule: Q01DX009 (ip), vehicle: saline with Tween-80
[13] = dose: 25.0 mg/kg/injection, schedule: Q01DX005 (ip), vehicle: Klucel (hydroxypropylcellulose) (HPC)
[14] = dose: 50.0 mg/kg/injection, schedule: Q01DX005 (ip), vehicle: Klucel (hydroxypropylcellulose) (HPC)
[15] = dose: 100.0 mg/kg/injection, schedule: Q01DX005 (ip), vehicle: Klucel (hydroxypropylcellulose) (HPC)
[16] = dose: 50.0 mg/kg/injection, schedule: Q01DX005 (ip), vehicle: saline with Tween-80
[17] = dose: 100.0 mg/kg/injection, schedule: Q01DX005 (ip), vehicle: saline with Tween-80

Nc1ccccc1S(=O)(=O)Nc1c(N)[nH]c(=S)[nH]c1=O
T/C [1]: 105 % of control | T/C [2]: 99 % of control | T/C [3]: 113 % of control

COc1cc2c(OC)c(c1)CCC1=CC(=O)C(=CC1=O)CC2
T/C (dose: 100.0 mg/kg/injection, schedule: Q01DX001 (ip), vehicle: Klucel (hydroxypropylcellulose) (HPC)): 99 % of control | T/C (dose: 200.0 mg/kg/injection, schedule: Q01DX001 (ip), vehicle: Klucel (hydroxypropylcellulose) (HPC)): 96 % of control

CCC/C(=N\NC(N)=NC)c1ccc(Cl)cc1
T/C (dose: 25.0 mg/kg/injection, schedule: Q04DX002 (ip), vehicle: saline): 102 % of control | T/C (dose: 50.0 mg/kg/injection, schedule: Q04DX002 (ip), vehicle: saline): 93 % of control

O=C(CSCc1c(F)cccc1Cl)Nc1ccc(F)c(Cl)c1
T/C [4]: 97 % of control | T/C [5]: 91 % of control | T/C [6]: 91 % of control

CCC(c1ccc(O)cc1)C(CC)c1ccc(OCCN)cc1 (centres undefined)
T/C (dose: 30.0 mg/kg/injection, schedule: Q01DX005 (ip), vehicle: saline with Tween-80): 111 % of control | T/C [4]: 103 % of control and 121 % of control | T/C [5]: 100 % of control

CN(CO)c1nc(N(C)CO)nc(N(C)CO)n1
T/C [7]: 110 % of control | T/C (dose: 12.5 mg/kg/injection, schedule: Q01DX009 (ip), vehicle: saline): 103 % of control | T/C [8]: 119 % of control | T/C [9]: 160 % of control | T/C [10]: 151 % of control | T/C [11]: 203 % of control

OC1(c2ccccc2)CCN(c2c3ccccc3nc3ccccc23)CC1
T/C (dose: 100.0 mg/kg/injection, schedule: Q04DX002 (ip), vehicle: Klucel (hydroxypropylcellulose) (HPC)): 118 % of control | T/C (dose: 200.0 mg/kg/injection, schedule: Q04DX002 (ip), vehicle: Klucel (hydroxypropylcellulose) (HPC)): 119 % of control

COc1cc(N=Nc2c(Cl)cc([N+](=O)[O-])cc2Cl)c([OH+]C)cc1[N+]#N.COc1cc(N=Nc2c(Cl)cc([N+](=O)[O-])cc2Cl)c([OH+]C)cc1[N+]#N.[Cl][Zn][Cl]
T/C [9]: 111 % of control and 115 % of control | T/C [11]: 120 % of control and 122 % of control | T/C (dose: 200.0 mg/kg/injection, schedule: Q01DX009 (ip), vehicle: saline): 119 % of control and 124 % of control | T/C (dose: 400.0 mg/kg/injection, schedule: Q01DX009 (ip), vehicle: saline): 119 % of control

CCSSC(=Nc1ccccc1)OCC(C)C
T/C (dose: 50.0 mg/kg/injection, schedule: Q01DX009 (ip), vehicle: saline + Tween-80 + alcohol): 107 % of control | T/C (dose: 100.0 mg/kg/injection, schedule: Q01DX009 (ip), vehicle: saline + Tween-80 + alcohol): 106 % of control | T/C (dose: 200.0 mg/kg/injection, schedule: Q01DX009 (ip), vehicle: saline + Tween-80 + alcohol): 123 % of control

O=C(Nc1cccc2c(OC(=O)C(Cl)Cl)c(N=Nc3ccc(S(=O)(=O)Nc4nccs4)cc3)cc(N=Nc3ccc(S(=O)(=O)Nc4nccs4)cc3)c12)C(Cl)Cl (tested in a mixture with another compound)
T/C (dose: 3.12 mg/kg/injection, schedule: Q01DX009 (ip), vehicle: saline with Tween-80): 107 % of control | T/C (dose: 6.25 mg/kg/injection, schedule: Q01DX009 (ip), vehicle: saline with Tween-80): 104 % of control | T/C [7]: 105 % of control and 110 % of control | T/C [8]: 105 % of control [middle of 5 runs] | T/C [12]: 108 % of control [middle of 8 runs]

CCOc1ccccc1NC(=O)/C(Cl)=C(\Cl)C(=O)O
T/C [4]: 109 % of control | T/C [5]: 107 % of control

COc1ccc2c(N)c3c4ccccc4cc[n+]3cc2c1OC
T/C (dose: 3.13 mg/kg/injection, schedule: Q04DX003 (ip), vehicle: water): 106 % of control and 112 % of control | T/C (dose: 6.25 mg/kg/injection, schedule: Q04DX003 (ip), vehicle: water): 106 % of control and 114 % of control | T/C (dose: 12.5 mg/kg/injection, schedule: Q04DX003 (ip), vehicle: water): 112 % of control | T/C (dose: 25.0 mg/kg/injection, schedule: Q04DX003 (ip), vehicle: water): 121 % of control

COC(=O)c1nc(N)nc(C(=O)OC)c1C(=O)C(C)C
T/C [4]: 97 % of control | T/C [5]: 98 % of control

Nc1cc2c3ccccc3ccc2c2ccccc12
T/C [13]: 104 % of control | T/C [14]: 107 % of control | T/C [15]: 109 % of control | T/C (dose: 200.0 mg/kg/injection, schedule: Q01DX005 (ip), vehicle: Klucel (hydroxypropylcellulose) (HPC)): 105 % of control

CCN(CC)CCOC(=O)C(OCC(C)C)(c1ccccc1)c1ccccc1
T/C [14]: 110 % of control | T/C [15]: 108 % of control

CC12OC3(C)c4ccccc4OP3(c3ccccc3)(Oc3ccccc31)O2 (centres undefined)
T/C (dose: 50.0 mg/kg/injection, schedule: Q01DX009 (ip), vehicle: saline with Tween-80): 99 % of control | T/C [10]: 97 % of control | T/C [12]: 88 % of control

Cn1/c(=N\NC(=O)c2ccncc2)sc2ccccc21
T/C (dose: 6.25 mg/kg/injection, schedule: Q01DX009 (ip), vehicle: Klucel (hydroxypropylcellulose) (HPC)): 110 % of control | T/C (dose: 12.5 mg/kg/injection, schedule: Q01DX009 (ip), vehicle: Klucel (hydroxypropylcellulose) (HPC)): 107 % of control | T/C (dose: 25.0 mg/kg/injection, schedule: Q01DX009 (ip), vehicle: Klucel (hydroxypropylcellulose) (HPC)): 115 % of control

COc1cc2c(c(NC(C)CCCN=C(N)NC(N)=NC(C)C)c1)NCCC2 (centres undefined)
T/C (dose: 3.12 mg/kg/injection, schedule: Q01DX005 (ip), vehicle: saline with Tween-80): 103 % of control | T/C (dose: 6.25 mg/kg/injection, schedule: Q01DX005 (ip), vehicle: saline with Tween-80): 106 % of control | T/C (dose: 12.5 mg/kg/injection, schedule: Q01DX005 (ip), vehicle: saline with Tween-80): 106 % of control

O=NN(C(=O)NCCCl)c1[nH]c(=O)ncc1Cl
T/C [13]: 97 % of control | T/C [14]: 100 % of control | T/C [15]: 108 % of control

CNc1nc(N)nc(N)c1N1CCN(c2ccc(C(=O)O)cc2)CC1
T/C [1]: 91 % of control | T/C [2]: 93 % of control | T/C [3]: 87 % of control

COc1ccc(-c2n[nH]c(-c3ccc(OC)cc3)c2N=Nc2ccc(S(=O)(=O)Nc3nnc(C)s3)cc2)cc1
T/C (dose: 100.0 mg/kg/injection, schedule: Q04DX002 (ip), vehicle: saline with Tween-80): 103 % of control | T/C (dose: 200.0 mg/kg/injection, schedule: Q04DX002 (ip), vehicle: saline with Tween-80): 103 % of control | T/C (dose: 400.0 mg/kg/injection, schedule: Q04DX002 (ip), vehicle: saline with Tween-80): 94 % of control

O=S1(=O)NC2CCC3NS(=O)(=O)NC4CCC(N1)N4S(=O)(=O)N23 (centres undefined)
T/C (dose: 50.0 mg/kg/injection, schedule: Q01DX005 (ip), vehicle: distilled water + alcohol): 101 % of control | T/C (dose: 100.0 mg/kg/injection, schedule: Q01DX005 (ip), vehicle: distilled water + alcohol): 109 % of control | T/C (dose: 200.0 mg/kg/injection, schedule: Q01DX005 (ip), vehicle: distilled water + alcohol): 105 % of control

CC(C)(C)N=S=Nc1c(F)c(F)c(F)c(F)c1F
T/C [16]: 110 % of control | T/C [17]: 106 % of control

Cc1c(S)cnc2ccccc12
T/C [16]: 99 % of control | T/C [17]: 93 % of control

COc1ccc2c(c1OC)C(C(Cl)(Cl)Cl)N1CCc3cc4c(cc3C1=C2C=O)OCO4 (centres undefined)
T/C [16]: 98 % of control | T/C [17]: 90 % of control | T/C (dose: 200.0 mg/kg/injection, schedule: Q01DX005 (ip), vehicle: saline with Tween-80): 90 % of control

COC(=O)Nc1nc2ccc(C(O)(c3ccccc3)c3cccs3)cc2[nH]1 (centres undefined)
T/C (dose: 25.0 mg/kg/injection, schedule: Q01DX005 (ip), vehicle: saline with Tween-80): 95 % of control | T/C [16]: 95 % of control | T/C [17]: 99 % of control

O=C1c2ccccc2-c2ccc(N=Cc3c[nH]c4ccccc34)cc21
T/C (dose: 50.0 mg/kg/injection, schedule: Q01DX005 (ip), vehicle: saline + Tween-80 + alcohol): 104 % of control | T/C (dose: 100.0 mg/kg/injection, schedule: Q01DX005 (ip), vehicle: saline + Tween-80 + alcohol): 98 % of control | T/C (dose: 200.0 mg/kg/injection, schedule: Q01DX005 (ip), vehicle: saline + Tween-80 + alcohol): 98 % of control

O=C(Nc1ccccc1)/C(Cl)=C1/Sc2ccccc2NC1=O
T/C [4]: 104 % of control | T/C [5]: 107 % of control | T/C [6]: 99 % of control
